Results taken from patent US9809574B2, “Isoindoline or isoquinoline compounds, a process for their preparation and pharmaceutical compositions containing them” (LES LABORATOIRES SERVIER, priority 2013, dated 2017).
Counter-ions that a name gives are not always drawn.

Key:
[1] = tested on: RS4; 11 leukaemia cell line; experiment: In vitro cytotoxicity, Microculture Tetrazolium Assay (MTT); type: cell-based; conditions: 11 cells exposed for 48 hours
Procedure: The cytotoxicity studies were carried out on the RS4; 11 leukaemia cell line and on H146 small Cell Lung Carcinoma cell line. The cells are distributed onto microplates and exposed to the test compounds for 48 hours. The cell viability is then quantified by a colorimetric assay, the Microculture Tetrazolium Assay (Cancer Res., 1987, 47, 939-942).

Bcl-2 protein = Bcl-2 protein (histag-Bcl-2, UniProtKB P10415) (Homo sapiens (Human), UniProt P10415); experiment: Inhibition of Bcl-2 by the fluorescence polarisation technique; type: binding; conditions: fluorescence polarisation test; incubation for 2 hours; read-out: IC50 (nM) Bcl-2 FP
Description: For partial inhibitors, the percentage fluorescence polarisation inhibition for a given concentration of the test compound is indicated.

Bcl-2 protein, sequence (P10415 whole entry): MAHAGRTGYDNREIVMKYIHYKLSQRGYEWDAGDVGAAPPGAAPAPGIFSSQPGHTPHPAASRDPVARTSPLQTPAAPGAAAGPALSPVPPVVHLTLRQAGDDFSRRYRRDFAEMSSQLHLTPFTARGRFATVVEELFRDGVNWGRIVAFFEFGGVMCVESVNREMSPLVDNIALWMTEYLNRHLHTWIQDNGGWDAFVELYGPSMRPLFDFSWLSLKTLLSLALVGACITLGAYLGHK

SMILES	IC50 ([1]; Homo sapiens) [nM]	IC50 (Bcl-2 protein) [nM]	IC50 [1] [nM]
CN(C(=O)c1cc(-c2cc3c(cc2C(=O)N2Cc4ccccc4C[C@H]2CN2CCOCC2)CN(C(=O)Cc2cccnc2)C3)n2c1CCCC2)c1ccc(O)cc1 [Example 42, N-(4-Hydroxyphenyl)-N-methyl-3-{6-[(3S)-3-(morpholin-4-ylmethyl)-1,2,3,4-tetrahydroisoquinoline-2-carbonyl]-2-[2-(pyridin-3-yl)acetyl]-2,3-dihydro-1H-isoindol-5-yl}-5,6,7,8-tetrahydroindolizine-1-carboxamide]	> 150	38	
CC(Cc1ccccc1)C(=O)N1Cc2cc(C(=O)N3Cc4ccccc4C[C@H]3C)c(-c3cc(C(=O)N(C)c4ccc(O)cc4)c4n3CCCC4)cc2C1 (stereo partly drawn) [Example 23, 3-[2-(2-Benzylpropanoyl)-6-[(3R)-3-methyl-1,2,3,4-tetrahydroisoquinoline-2-carbonyl]-2,3-dihydro-1H-isoindol-5-yl]-N-(4-hydroxyphenyl)-N-methyl-5,6,7,8-tetrahydroindolizine-1-carboxamide]	61	13	
Cc1c(C(=O)N(C)c2ccc(O)cc2)cc(-c2cc3c(cc2C(=O)N2Cc4ccccc4C[C@H]2C)CN(C(=O)Oc2cccc(OCCN(C)C)c2)CC3)n1C [Example 434, 3-[2-(Dimethylamino)ethoxy]phenyl 6-{4-[(4-hydroxyphenyl)(methyl)carbamoyl]-1,5-dimethyl-1H-pyrrol-2-yl}-7-[(3R)-3-methyl-1,2,3,4-tetrahydroisoquinoline-2-carbonyl]-1,2,3,4-tetrahydrisoquinoline-2-carboxylate]		2.9	1.6
C[C@@H]1Cc2ccccc2CN1C(=O)c1cc2c(cc1-c1cc(C(=O)N(C)c3ccc(O)cc3)c3n1CCCC3)CCN(C(=O)Oc1ccc(CCC(=O)N(C)C)cc1)C2 [Example 155, 4-[2-(Dimethylcarbamoyl)ethyl]phenyl 6-{1-[(4-hydroxyphenyl)(methyl)carbamoyl]-5,6,7,8-tetrahydroindolizin-3-yl}-7-[(3R)-3-methyl-1,2,3,4-tetrahydroisoquinoline-2-carbonyl]-1,2,3,4-tetrahydroisoquinoline-2-carboxylate]	2.9	3.2	
Cc1ccc(OC(=O)N2CCc3cc(-c4cc(C(=O)N(C)c5ccc(O)cc5)c(C)n4C)c(C(=O)N4Cc5ccccc5C[C@H]4CN4CCOCC4)cc3C2)cc1 [Example 139, 4-Methylphenyl 6-{4-[(4-hydroxyphenyl)(methyl)carbamoyl]-1,5-dimethyl-1H-pyrrol-2-yl}-7-[(3S)-3-(morpholin-4-ylmethyl)-1,2,3,4-tetrahydroisoquinoline-2-carbonyl]-1,2,3,4-tetrahydroisoquinoline-2-carboxylate]	0.84	5.1	
CCCCN(CCCC)C(=O)c1cc(-c2cc3c(cc2C(=O)N2CCc4ccccc4C2)CN(C(=O)Oc2ccccc2)CC3)n(C)c1C [Example 161, Phenyl 6-[4-(dibutylcarbamoyl)-1,5-dimethyl-1H-pyrrol-2-yl]-7-(1,2,3,4-tetrahydroisoquinoline-2-carbonyl)-1,2,3,4-tetrahydroisoquinoline-2-carboxylate]	> 150	68	
CN(C(=O)c1cc(-c2cc3c(cc2C(=O)N2Cc4ccccc4C[C@H]2CN2CCOCC2)CN(C(=O)Oc2ccccc2)CC3)n2c1CCCC2)c1ccc(O)cc1 [Example 69, Phenyl 6-{1-[(4-hydroxyphenyl)(methyl)carbamoyl]-5,6,7,8-tetrahydroindolizin-3-yl}-7-[(3S)-3-(morpholin-4-ylmethyl)-1,2,3,4-tetrahydroisoquinoline-2-carbonyl]-1,2,3,4-tetrahydroisoquinoline-2-carboxylate hydrochloride]	3.46	3.1	
Cc1c(C(=O)N(C)c2ccc(O)cc2)cc(-c2cc3c(cc2C(=O)N2Cc4ccccc4C[C@H]2C)CN(C(=O)OC2CCS(=O)(=O)C2)C3)n1C (stereo partly drawn) [Example 157, 1,1-Dioxo-1λ^6-thiolan-3-yl 5-{4-[(4-hydroxyphenyl)(methyl)carbamoyl]-1,5-dimethyl-1H-pyrrol-2-yl}-6-[(3R)-3-methyl-1,2,3,4-tetrahydroisoquinoline-2-carbonyl]-2,3-dihydro-1H-isoindole-2-carboxylate]	> 600	21	
C[C@@H]1Cc2ccccc2CN1C(=O)c1cc2c(cc1-c1cc(C(=O)N(C)c3ccc(O)cc3)c3n1CCCC3)CCN(C(=O)Cc1ccc(NCCN3CCOCC3)cc1)C2 [Example 96, N-(4-Hydroxyphenyl)-N-methyl-3-{7-[(3R)-3-methyl-1,2,3,4-tetrahydroisoquinoline-2-carbonyl]-2-[2-(4-{[2-(morpholin-4-yl)ethyl]amino}phenyl)acetyl]-1,2,3,4-tetrahydroisoquinolin-6-yl}-5,6,7,8-tetrahydroindolizine-1-carboxamide]	9.1	3.9	
CN(C(=O)c1cc(-c2cc3c(cc2C(=O)N2Cc4ccccc4C[C@H]2CN2CCOCC2)CN(C(=O)Nc2ccccc2)CC3)n2c1CCCC2)c1ccc(O)cc1 [Example 77, 6-{1-[(4-Hydroxyphenyl)(methyl)carbamoyl]-5,6,7,8-tetrahydroindolizin-3-yl}-7-[(3S)-3-(morpholin-4-ylmethyl)-1,2,3,4-tetrahydroisoquinoline-2-carbonyl]-N-phenyl-1,2,3,4-tetrahydroisoquinoline-2-carboxamide]	84	4	
Cc1c(C(=O)N(C)c2ccc(O)cc2)cc(-c2cc3c(cc2C(=O)N2Cc4ccccc4C[C@H]2C)CN(C(=O)Oc2cccc(C(=O)O)c2)CC3)n1C [Example 715, 3-(6-{4-[(4-Hydroxyphenyl)(methyl)carbamoyl]-1,5-dimethyl-1H-pyrrol-2-yl}-7-[(3R)-3-methyl-1,2,3,4-tetrahydroisoquinoline-2-carbonyl]-1,2,3,4-tetrahydroisoquinoline-2-carbonyloxy)benzoic acid]	> 150	2.2	
COc1ccc(CC(=O)N2Cc3cc(C(=O)N4Cc5ccccc5C[C@H]4C)c(-c4cc(C(=O)N(C)c5ccc(O)cc5)c(C)n4C)cc3C2)cc1 [Example 101, N-(4-Hydroxyphenyl)-5-{2-[2-(4-methoxyphenyl)acetyl]-6-[(3R)-3-methyl-1,2,3,4-tetrahydroisoquinoline-2-carbonyl]-2,3-dihydro-1H-isoindol-5-yl}-N,1,2-trimethyl-1H-pyrrole-3-carboxamide]	31	2.6	
C[C@@H]1Cc2ccccc2CN1C(=O)c1cc2c(cc1-c1cc(C(=O)N(C)c3ccc(O)cc3)c3ccccn13)CN(C(=O)COc1ccccc1)C2 [Example 167, N-(4-Hydroxyphenyl)-N-methyl-3-{6-[(3R)-3-methyl-1,2,3,4-tetrahydroisoquinoline-2-carbonyl]-2-(2-phenoxyacetyl)-2,3-dihydro-1H-isoindol-5-yl}indolizine-1-carboxamide]	20	6.5	
Cc1c(C(=O)N(C)c2ccc(O)cc2)cc(-c2cc3c(cc2C(=O)N2Cc4ccccc4C[C@H]2C)CN(C(=O)Cc2ccc(C#N)cc2)CC3)n1C [Example 145, 5-{2-[2-(4-Cyanophenyl)acetyl]-7-[(3R)-3-methyl-1,2,3,4-tetrahydroisoquinoline-2-carbonyl]-1,2,3,4-tetrahydroisoquinolin-6-yl}-N-(4-hydroxyphenyl)-N,1,2-trimethyl-1H-pyrrole-3-carboxamide]	5.5	4.2	
C[C@@H]1Cc2ccccc2CN1C(=O)c1cc2c(cc1-c1cc(C(=O)N(C)c3ccc(O)cc3)c3n1CCCC3)CN(C(=O)Cc1csc(-c3cnccn3)n1)C2 [Example 31, N-(4-Hydroxyphenyl)-N-methyl-3-{6-[(3R)-3-methyl-1,2,3,4-tetrahydroisoquinoline-2-carbonyl]-2-{2-[2-(pyrazin-2-yl)-1,3-thiazol-4-yl]acetyl}-2,3-dihydro-1H-isoindol-5-yl}-5,6,7,8-tetrahydroindolizine-1-carboxamide]	113	7.4	
Cc1c(C(=O)N(C)c2ccc(O)cc2)cc(-c2cc3c(cc2C(=O)N2Cc4ccccc4C[C@H]2CN2CCOCC2)CN(C(=O)Nc2ccccc2)CC3)n1C [Example 245, 6-{4-[(4-Hydroxyphenyl)(methyl)carbamoyl]-1,5-dimethyl-1H-pyrrol-2-yl}-7-[(3S)-3-(morpholin-4-ylmethyl)-1,2,3,4-tetrahydroisoquinoline-2-carbonyl]-N-phenyl-1,2,3,4-tetrahydroisoquinoline-2-carboxamide]	92	4.2	
C[C@@H]1Cc2ccccc2CN1C(=O)c1cc2c(cc1-c1cc(C(=O)N(C)c3ccc(O)cc3)c3n1CCCC3)CCN(C(=O)Cc1ccc(OCCN(C)C)cc1)C2 [Example 154, 3-[2-(2-{4-[2-(Dimethylamino)ethoxy]phenyl}acetyl)-7-[(3R)-3-methyl-1,2,3,4-tetrahydroisoquinoline-2-carbonyl]-1,2,3,4-tetrahydroisoquinolin-6-yl]-N-(4-hydroxyphenyl)-N-methyl-5,6,7,8-tetrahydroindolizine-1-carboxamide]	5.9	3.9	
C[C@@H]1Cc2ccccc2CN1C(=O)c1cc2c(cc1-c1cc(C(=O)N(C)c3ccc(O)cc3)c3n1CCCC3)CN(C(=O)C1CC1)C2 [Example 20, 3-{2-Cyclopropanecarbonyl-6-[(3R)-3-methyl-1,2,3,4-tetrahydroisoquinoline-2-carbonyl]-2,3-dihydro-1H-isoindol-5-yl}-N-(4-hydroxyphenyl)-N-methyl-5,6,7,8-tetrahydroindolizine-1-carboxamide]	> 150	20	
C[C@@H]1Cc2ccccc2CN1C(=O)c1cc2c(cc1-c1cc(C(=O)N(C)c3ccc(O)cc3)c3n1CCCC3)CN(C(=O)CCc1ccccc1)C2 [Example 15, N-(4-Hydroxyphenyl)-N-methyl-3-{6-[(3R)-3-methyl-1,2,3,4-tetrahydroisoquinoline-2-carbonyl]-2-(3-phenylpropanoyl)-2,3-dihydro-1H-isoindol-5-yl}-5,6,7,8-tetrahydroindolizine-1-carboxamide]	93	19	
